Results as given in ChEMBL document CHEMBL5465560, “Selectivity Literature for EUbOPEN Chemogenomic Library” (2024).

Experiments:
[1] = target: Tyrosine-protein kinase receptor Tie-1 (Homo sapiens) (UniProt P35590); assay: Selectivity interaction (KinomeScan (DiscoverX)) EUB0000229b TIE1; settings: at 10 µM
[2] = target: T1, Mitogen-activated protein kinase 12 (Homo sapiens) (UniProt P53778); assay: Selectivity interaction (KinomeScan (DiscoverX)) EUB0000092b MAPK12; settings: at 10 µM
T1 sequence (whole entry): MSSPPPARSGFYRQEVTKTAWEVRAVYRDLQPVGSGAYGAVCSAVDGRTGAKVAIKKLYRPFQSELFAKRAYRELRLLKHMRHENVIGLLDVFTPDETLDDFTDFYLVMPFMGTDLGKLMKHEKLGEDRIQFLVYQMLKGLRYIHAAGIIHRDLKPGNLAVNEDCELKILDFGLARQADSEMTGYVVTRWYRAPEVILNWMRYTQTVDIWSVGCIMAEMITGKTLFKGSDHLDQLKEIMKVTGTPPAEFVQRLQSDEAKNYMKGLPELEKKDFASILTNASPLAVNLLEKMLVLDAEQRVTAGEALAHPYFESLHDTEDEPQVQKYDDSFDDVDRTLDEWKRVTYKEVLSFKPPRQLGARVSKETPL

[3] = target: Dual specificity mitogen-activated protein kinase kinase 1 (Homo sapiens, UniProt Q02750); assay: Selectivity interaction (KinomeScan (DiscoverX)) EUB0000655a MAP2K1; settings: at 10 µM
Chain of Dual specificity mitogen-activated protein kinase kinase 1 (Q02750 whole entry): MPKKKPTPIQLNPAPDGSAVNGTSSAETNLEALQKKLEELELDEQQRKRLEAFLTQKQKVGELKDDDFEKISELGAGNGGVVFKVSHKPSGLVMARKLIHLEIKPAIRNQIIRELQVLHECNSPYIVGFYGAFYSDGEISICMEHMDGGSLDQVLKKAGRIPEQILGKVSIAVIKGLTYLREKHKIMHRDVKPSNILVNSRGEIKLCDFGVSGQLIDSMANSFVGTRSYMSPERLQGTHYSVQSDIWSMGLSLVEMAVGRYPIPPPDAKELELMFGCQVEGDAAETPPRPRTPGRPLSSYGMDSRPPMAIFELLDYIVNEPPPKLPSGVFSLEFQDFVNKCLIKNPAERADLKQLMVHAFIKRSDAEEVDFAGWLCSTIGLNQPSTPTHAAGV

[4] = target: T2, Serine/threonine-protein kinase Sgk3 (Homo sapiens) (UniProt Q96BR1); assay: Selectivity interaction (ProQinase) EUB0000171b SGK3
T2 sequence (whole entry): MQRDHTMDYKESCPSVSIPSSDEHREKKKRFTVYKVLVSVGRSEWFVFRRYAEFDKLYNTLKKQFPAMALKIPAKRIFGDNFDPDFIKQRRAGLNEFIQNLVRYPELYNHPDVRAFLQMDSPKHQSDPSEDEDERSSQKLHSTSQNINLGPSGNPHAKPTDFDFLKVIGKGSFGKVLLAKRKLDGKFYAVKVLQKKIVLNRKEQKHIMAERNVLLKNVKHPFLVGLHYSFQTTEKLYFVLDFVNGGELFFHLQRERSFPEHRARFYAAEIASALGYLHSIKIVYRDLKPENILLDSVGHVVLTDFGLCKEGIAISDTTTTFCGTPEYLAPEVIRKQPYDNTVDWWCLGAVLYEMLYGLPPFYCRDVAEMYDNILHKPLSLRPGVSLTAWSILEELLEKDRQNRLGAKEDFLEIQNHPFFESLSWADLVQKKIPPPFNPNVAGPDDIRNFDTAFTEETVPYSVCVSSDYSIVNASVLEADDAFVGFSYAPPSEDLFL

[5] = target: Fibroblast growth factor receptor 4 (Homo sapiens, UniProt P22455); settings: at 10 µM
Chain of Fibroblast growth factor receptor 4 (P22455 22-802 limits assumed): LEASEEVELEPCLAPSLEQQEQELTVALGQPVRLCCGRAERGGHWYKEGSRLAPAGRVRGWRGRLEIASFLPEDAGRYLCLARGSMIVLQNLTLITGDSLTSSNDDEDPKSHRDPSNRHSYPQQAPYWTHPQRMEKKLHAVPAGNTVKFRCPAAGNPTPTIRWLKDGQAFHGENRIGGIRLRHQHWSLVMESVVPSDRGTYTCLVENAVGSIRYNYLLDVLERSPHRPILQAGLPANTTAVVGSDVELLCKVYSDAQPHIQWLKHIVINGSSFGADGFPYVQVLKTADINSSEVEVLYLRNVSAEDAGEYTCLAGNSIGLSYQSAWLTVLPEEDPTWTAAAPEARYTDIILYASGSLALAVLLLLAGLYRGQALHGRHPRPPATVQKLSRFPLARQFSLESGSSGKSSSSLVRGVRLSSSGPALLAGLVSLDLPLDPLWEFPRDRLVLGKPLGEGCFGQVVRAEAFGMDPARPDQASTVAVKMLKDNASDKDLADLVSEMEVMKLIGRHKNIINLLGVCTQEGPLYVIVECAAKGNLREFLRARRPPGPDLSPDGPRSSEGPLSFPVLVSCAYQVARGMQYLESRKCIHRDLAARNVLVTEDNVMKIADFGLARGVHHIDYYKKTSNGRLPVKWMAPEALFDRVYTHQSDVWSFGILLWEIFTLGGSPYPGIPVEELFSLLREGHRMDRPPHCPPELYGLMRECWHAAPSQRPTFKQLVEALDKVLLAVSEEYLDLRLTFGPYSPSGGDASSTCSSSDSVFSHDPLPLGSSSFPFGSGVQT

[6] = tested on: Tyrosine-protein kinase ABL1 (Homo sapiens), P00519 [H396P]; settings: at 10 µM
[7] = target: T3, Serine/threonine-protein kinase Sgk1 (Homo sapiens) (UniProt O00141); assay: Selectivity interaction (KinomeScan (DiscoverX)) EUB0000607a SGK1; settings: at 10 µM
T3 sequence (whole entry): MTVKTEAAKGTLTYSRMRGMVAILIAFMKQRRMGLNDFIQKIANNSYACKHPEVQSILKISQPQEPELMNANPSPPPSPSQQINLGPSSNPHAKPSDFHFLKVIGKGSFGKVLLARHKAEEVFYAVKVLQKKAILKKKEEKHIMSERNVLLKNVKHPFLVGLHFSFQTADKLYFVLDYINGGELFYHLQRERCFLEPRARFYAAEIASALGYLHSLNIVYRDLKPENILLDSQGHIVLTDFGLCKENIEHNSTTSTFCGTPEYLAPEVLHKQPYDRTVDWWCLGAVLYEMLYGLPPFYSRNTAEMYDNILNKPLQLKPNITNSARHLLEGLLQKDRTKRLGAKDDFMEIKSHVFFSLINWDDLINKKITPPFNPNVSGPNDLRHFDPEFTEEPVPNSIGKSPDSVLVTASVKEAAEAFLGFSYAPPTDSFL

[8] = target: Serine/threonine-protein kinase SBK1 (Homo sapiens) (UniProt Q52WX2); assay: Selectivity interaction (KinomeScan (DiscoverX)) EUB0000607a SBK1; settings: at 10 µM
Chain of Serine/threonine-protein kinase SBK1 (Homo sapiens) (Q52WX2 whole entry): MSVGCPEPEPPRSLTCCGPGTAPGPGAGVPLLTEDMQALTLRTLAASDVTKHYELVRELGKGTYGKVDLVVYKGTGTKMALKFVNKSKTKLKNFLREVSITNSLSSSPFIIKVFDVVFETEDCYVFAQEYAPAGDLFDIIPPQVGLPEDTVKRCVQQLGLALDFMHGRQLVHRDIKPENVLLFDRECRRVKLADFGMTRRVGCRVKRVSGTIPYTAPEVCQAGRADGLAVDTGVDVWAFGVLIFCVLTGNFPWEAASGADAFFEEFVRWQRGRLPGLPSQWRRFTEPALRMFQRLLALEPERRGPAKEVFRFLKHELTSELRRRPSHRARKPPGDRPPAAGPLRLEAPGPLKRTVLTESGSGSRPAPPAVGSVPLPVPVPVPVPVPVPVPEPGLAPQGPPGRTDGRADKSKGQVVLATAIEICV

[9] = target: Serine/threonine-protein kinase 38 (Homo sapiens) (UniProt Q15208); assay: Selectivity interaction (KinomeScan (DiscoverX)) EUB0001049a STK38; settings: at 1 µM
Chain of Serine/threonine-protein kinase 38 (Homo sapiens) (Q15208 2-465 limits assumed): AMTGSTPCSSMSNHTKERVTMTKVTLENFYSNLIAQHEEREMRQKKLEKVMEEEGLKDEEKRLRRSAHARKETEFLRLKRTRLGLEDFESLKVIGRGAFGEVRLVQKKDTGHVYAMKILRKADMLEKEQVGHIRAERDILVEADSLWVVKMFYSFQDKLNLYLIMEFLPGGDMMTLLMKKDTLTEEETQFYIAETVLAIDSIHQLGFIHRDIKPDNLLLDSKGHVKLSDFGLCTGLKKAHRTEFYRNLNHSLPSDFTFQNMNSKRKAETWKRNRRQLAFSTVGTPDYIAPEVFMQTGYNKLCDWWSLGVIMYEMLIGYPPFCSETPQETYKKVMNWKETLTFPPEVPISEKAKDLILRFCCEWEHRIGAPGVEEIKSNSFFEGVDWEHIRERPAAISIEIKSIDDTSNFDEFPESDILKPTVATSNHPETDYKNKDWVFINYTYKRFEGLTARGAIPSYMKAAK

[10] = target: Mitogen-activated protein kinase kinase kinase kinase 4 (Homo sapiens, UniProt O95819); assay: Selectivity interaction (KinomeScan (DiscoverX)) EUB0000595a MAP4K4; settings: at 10 µM
Chain of Mitogen-activated protein kinase kinase kinase kinase 4 (O95819 2-1239 limits assumed): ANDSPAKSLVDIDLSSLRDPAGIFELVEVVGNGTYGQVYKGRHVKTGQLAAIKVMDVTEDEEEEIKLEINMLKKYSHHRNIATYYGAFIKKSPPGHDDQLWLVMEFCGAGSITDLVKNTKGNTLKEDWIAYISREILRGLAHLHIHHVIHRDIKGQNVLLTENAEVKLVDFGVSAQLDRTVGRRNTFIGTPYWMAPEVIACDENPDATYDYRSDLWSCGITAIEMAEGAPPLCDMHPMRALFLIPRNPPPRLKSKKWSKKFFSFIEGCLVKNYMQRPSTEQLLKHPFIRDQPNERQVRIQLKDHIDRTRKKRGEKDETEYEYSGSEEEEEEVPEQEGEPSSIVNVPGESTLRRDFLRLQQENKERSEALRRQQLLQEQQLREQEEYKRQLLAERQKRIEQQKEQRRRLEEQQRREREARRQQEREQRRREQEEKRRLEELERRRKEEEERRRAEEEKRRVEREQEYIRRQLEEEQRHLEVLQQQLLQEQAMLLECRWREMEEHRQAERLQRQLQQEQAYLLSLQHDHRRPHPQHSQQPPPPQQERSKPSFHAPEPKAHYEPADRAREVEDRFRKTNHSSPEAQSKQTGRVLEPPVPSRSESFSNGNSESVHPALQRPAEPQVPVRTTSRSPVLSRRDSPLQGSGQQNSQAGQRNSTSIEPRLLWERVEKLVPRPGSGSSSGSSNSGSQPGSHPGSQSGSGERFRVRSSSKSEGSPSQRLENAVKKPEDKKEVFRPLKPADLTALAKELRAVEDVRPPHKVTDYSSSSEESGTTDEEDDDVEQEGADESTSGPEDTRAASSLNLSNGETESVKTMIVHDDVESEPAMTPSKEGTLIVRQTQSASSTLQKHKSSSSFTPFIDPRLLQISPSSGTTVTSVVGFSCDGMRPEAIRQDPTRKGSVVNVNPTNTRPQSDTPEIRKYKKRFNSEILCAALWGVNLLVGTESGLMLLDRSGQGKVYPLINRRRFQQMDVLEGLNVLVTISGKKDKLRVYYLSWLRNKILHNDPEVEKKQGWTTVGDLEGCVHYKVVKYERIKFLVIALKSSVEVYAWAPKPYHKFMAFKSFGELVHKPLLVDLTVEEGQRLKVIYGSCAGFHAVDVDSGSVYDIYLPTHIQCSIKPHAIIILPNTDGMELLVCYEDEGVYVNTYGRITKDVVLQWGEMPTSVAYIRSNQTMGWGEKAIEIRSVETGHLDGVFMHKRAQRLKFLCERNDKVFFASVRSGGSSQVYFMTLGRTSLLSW

[11] = target: Ribosomal protein S6 kinase alpha-6 (Homo sapiens, UniProt Q9UK32); assay: Selectivity interaction (KinomeScan (DiscoverX)) EUB0000045b RPS6KA6; settings: at 10 µM
Chain of Ribosomal protein S6 kinase alpha-6 (Q9UK32 whole entry): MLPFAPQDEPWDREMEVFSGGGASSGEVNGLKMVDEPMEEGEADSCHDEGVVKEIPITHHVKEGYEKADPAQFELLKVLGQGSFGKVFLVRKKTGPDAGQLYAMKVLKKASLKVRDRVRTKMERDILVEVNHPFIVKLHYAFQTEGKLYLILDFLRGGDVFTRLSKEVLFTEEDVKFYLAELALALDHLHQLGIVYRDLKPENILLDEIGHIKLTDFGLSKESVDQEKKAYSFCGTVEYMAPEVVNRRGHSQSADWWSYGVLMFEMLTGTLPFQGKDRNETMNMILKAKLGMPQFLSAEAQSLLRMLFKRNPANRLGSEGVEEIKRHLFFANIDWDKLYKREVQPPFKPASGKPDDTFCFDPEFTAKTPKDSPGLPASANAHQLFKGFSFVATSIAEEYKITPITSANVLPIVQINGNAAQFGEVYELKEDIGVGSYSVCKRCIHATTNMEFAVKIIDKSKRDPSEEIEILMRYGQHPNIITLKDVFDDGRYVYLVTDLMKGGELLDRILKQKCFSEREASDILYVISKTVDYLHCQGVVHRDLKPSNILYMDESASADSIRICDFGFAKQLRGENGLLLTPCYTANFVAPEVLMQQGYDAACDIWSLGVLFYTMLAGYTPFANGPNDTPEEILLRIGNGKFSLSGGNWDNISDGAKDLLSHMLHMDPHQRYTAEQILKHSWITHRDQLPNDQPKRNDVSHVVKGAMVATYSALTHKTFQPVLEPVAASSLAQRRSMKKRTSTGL

[12] = target: Serine/threonine-protein kinase mTOR (Homo sapiens, UniProt P42345); assay: Selectivity interaction (KinomeScan (DiscoverX)) EUB0000618a MTOR; settings: at 10 µM
[13] = target: T4, Rhodopsin kinase GRK7 (Homo sapiens) (UniProt Q8WTQ7); assay: Selectivity interaction (KinomeScan (DiscoverX)) EUB0000618a GRK7; settings: at 10 µM
T4 sequence (whole entry): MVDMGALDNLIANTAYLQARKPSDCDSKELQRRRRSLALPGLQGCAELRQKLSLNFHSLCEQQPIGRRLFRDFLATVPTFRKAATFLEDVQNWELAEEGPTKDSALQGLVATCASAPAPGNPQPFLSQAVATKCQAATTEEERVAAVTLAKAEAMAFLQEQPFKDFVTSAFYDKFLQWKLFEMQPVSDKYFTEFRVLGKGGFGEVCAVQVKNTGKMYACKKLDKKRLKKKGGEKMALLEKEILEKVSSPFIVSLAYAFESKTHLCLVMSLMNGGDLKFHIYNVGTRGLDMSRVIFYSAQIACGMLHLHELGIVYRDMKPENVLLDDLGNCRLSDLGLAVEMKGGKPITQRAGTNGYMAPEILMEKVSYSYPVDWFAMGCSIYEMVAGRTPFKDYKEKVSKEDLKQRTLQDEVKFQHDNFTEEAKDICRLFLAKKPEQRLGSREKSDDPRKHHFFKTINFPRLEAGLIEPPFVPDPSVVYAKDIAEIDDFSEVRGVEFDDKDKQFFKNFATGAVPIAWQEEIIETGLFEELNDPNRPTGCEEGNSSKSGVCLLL

[14] = target: Serine/threonine-protein kinase PAK 4 (Homo sapiens, UniProt O96013); assay: Selectivity interaction (KinomeScan (DiscoverX)) EUB0001619a PAK4; settings: at 1 µM
Chain of Serine/threonine-protein kinase PAK 4 (O96013 whole entry, looked up): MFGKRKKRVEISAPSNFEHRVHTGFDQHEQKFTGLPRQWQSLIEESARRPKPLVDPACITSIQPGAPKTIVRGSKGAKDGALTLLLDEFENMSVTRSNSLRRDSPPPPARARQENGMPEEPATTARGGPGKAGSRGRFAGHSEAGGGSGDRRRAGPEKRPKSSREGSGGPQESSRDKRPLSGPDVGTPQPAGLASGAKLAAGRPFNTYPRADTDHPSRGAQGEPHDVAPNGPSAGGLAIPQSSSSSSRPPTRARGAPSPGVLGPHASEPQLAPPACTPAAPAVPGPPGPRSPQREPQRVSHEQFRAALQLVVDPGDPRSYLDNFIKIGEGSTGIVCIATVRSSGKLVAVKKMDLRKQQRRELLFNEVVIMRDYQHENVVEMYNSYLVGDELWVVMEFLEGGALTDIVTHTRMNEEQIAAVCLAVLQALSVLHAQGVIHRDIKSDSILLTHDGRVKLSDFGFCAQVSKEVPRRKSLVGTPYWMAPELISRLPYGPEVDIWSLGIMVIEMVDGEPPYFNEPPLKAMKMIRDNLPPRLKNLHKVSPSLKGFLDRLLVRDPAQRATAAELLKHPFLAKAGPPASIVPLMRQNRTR

Compound: COc1cc(N(C)c2ccnc3ccc(C(F)(F)F)cc23)cc(OC)c1OC
- % binding [1]: 75%

Compound: CCC(=O)N1CCN(c2ccc(-n3c(=O)ccc4cnc5ccc(-c6cnc7ccccc7c6)cc5c43)cc2C(F)(F)F)CC1
- % of control [2]: 71%

Compound: CN(C)CCOc1ccc(-c2nc(-c3ccncc3)c(-c3ccc4c(c3)CC/C4=N\O)[nH]2)cc1
- % of control [3]: 99%

Compound: C=CC(=O)Nc1cccc(C(=O)Nc2ccc(Nc3cc(-c4[nH]c(SC)nc4C)ccn3)cc2)c1
- % of control ([4]; at 1 µM): 82%
- % of control ([4]; at 5 µM): 76%

Compound: Cc1cc([C@@H](C)Nc2ccccc2C(=O)O)c2nc(N3CCOCC3)cc(=O)n2c1 [AZD-6482]
- % of control [5]: 100%
- % of control [6]: 61%

Compound: CNC(=O)Nc1ccc(-c2nc(N3CC4CCC(C3)O4)c3cnn(C4CCC5(CC4)OCCO5)c3n2)cc1
- % of control [7]: 100%
- % of control [8]: 100%

Compound: COc1cc(Nc2nc(C)cc(-c3cnn4nc(OC)ccc34)n2)cc(C(F)(F)F)c1
- % of control [9]: 90%

Compound: COCC(=O)NC/C=C/c1ccc2ncnc(Nc3ccc(Oc4ccc(C)nc4)c(C)c3)c2c1 [CP-724714]
- % of control [10]: 97%

Compound: C=CC(=O)Nc1cc(-n2c(=O)ccc3cnc4ccc(-c5ccc(NS(C)(=O)=O)cc5)cc4c32)ccc1C
- % of control [11]: 88%

Compound: O[C@H]1CC[C@H](Nc2ncc3nc(Nc4c(F)cc(F)cc4F)n([C@H]4CCOC4)c3n2)CC1
- % of control [12]: 68%
- % of control [13]: 86%

Compound: N#Cc1cccc(-c2c[nH]c3ncnc(N4CCOCC4)c23)c1
- % of control [14]: 100%
